Assay results: patent US9650395B2, “Antibacterial compounds and methods for use” (PTC Therapeutics, Inc., priority 2011, dated 2017)
Converted amounts (≈) assume the structure as drawn. Where a name gives a salt, the structure may show the parent alone. Read-outs that look alike come from different tables or passages of the source.

Experiments:
[1] = test system: Gram-positive Staphylococcus aureus (S. aureus) 29213; assay: Antibacterial activity, microbroth dilution MIC, S. aureus 29213; assay type: cell-based; details: Staphylococcus aureus; S. aureus 29213, microbroth dilution; read-out: MIC, 29213
[2] = test system: control Gram-negative E. coli 25922 strain; assay: Antibacterial activity, microbroth dilution MIC, E. coli 25922; assay type: cell-based, Escherichia coli; details: Escherichia coli; E. coli 25922, microbroth dilution; read-out: MIC, 25922
[3] = test system: super sensitive Gram-negative Escherichia coli (E. coli) BAS849; assay: Antibacterial activity, microbroth dilution MIC, E. coli BAS849; assay type: cell-based; details: Escherichia coli, read-out: MIC, BAS849
[4] = E. coli BAS849, microbroth dilution

Compound	MIC [1]	MIC [2]	MIC [3, 4]	MIC [3]
CCc1cc(C(=O)O)c(=O)[nH]c1-c1cnn(C)c1 [Cpd 346, 5-ethyl-6-(1-methyl-1H-pyrazol-4-yl)-2-oxo-1,2-dihydropyridine-3-carboxylic acid]	12.5 to 150 µg/mL (≈ 50.6 to 607 µM)	12.5 to 150 µg/mL (≈ 50.6 to 607 µM)	12.5 to 150 µg/mL (≈ 50.6 to 607 µM)	–
CCc1cc(C(=O)O)c(=O)[nH]c1-c1ccc(N2CCCCC2)s1 [Cpd 308, 5-ethyl-2-oxo-6-[5-(piperidin-1-yl)thiophen-2-yl]-1,2-dihydropyridine-3-carboxylic acid]	12.5 to 150 µg/mL (≈ 37.6 to 451 µM)	12.5 to 150 µg/mL (≈ 37.6 to 451 µM)	1 to 3.5 µg/mL (≈ 3.01 to 10.5 µM)	–
CCc1cc(C(=O)O)c(=O)[nH]c1-c1ccc(N2CCCC2)c(OC)c1 [Cpd 66, 5-ethyl-6-[3-methoxy-4-(pyrrolidin-1-yl)phenyl]-2-oxo-1,2-dihydropyridine-3-carboxylic acid]	12.5 to 150 µg/mL (≈ 36.5 to 438 µM)	12.5 to 150 µg/mL (≈ 36.5 to 438 µM)	3.5 to 12.5 µg/mL (≈ 10.2 to 36.5 µM)	–
CCc1cc(C(=O)O)c(=O)[nH]c1-c1ccc(Cl)cc1 [Cpd 76, 6-(4-chlorophenyl)-5-ethyl-2-oxo-1,2-dihydropyridine-3-carboxylic acid]	12.5 to 150 µg/mL (≈ 45 to 540 µM)	12.5 to 150 µg/mL (≈ 45 to 540 µM)	12.5 to 150 µg/mL (≈ 45 to 540 µM)	–
CCc1c(-c2ccc(N(C)C)c(OC)c2)[nH]c(=O)c(C(=O)O)c1O [Cpd 65, 6-[4-(dimethylamino)-3-methoxyphenyl]-5-ethyl-4-hydroxy-2-oxo-1,2-dihydropyridine-3-carboxylic acid]	12.5 to 150 µg/mL (≈ 37.6 to 451 µM)	12.5 to 150 µg/mL (≈ 37.6 to 451 µM)	3.5 to 12.5 µg/mL (≈ 10.5 to 37.6 µM)	–
CCc1cc(C(=O)O)c(=O)[nH]c1-c1ccc(N2C[C@@H](N)[C@H](O)C2)cc1.Cl [Cpd 133, 6-{4-[(3R,4R)-3-amino-4-hydroxypyrrolidin-1-yl]phenyl}-5-ethyl-2-oxo-1,2-dihydropyridine-3-carboxylic acid hydrochloride]	12.5 to 150 µg/mL	12.5 to 150 µg/mL	1 to 3.5 µg/mL	–
CCc1c(-c2ccc(C)cc2)[nH]c(=O)c(C(=O)O)c1O [Cpd 28, 5-ethyl-4-hydroxy-6-(4-methylphenyl)-2-oxo-1,2-dihydropyridine-3-carboxylic acid]	3.5 to 12.5 µg/mL (≈ 12.8 to 45.7 µM)	12.5 to 150 µg/mL (≈ 45.7 to 549 µM)	< 1 µg/mL	–
CCc1cc(C(=O)O)c(=O)[nH]c1-c1ccccc1N1CCCCC1 [Cpd 31, 5-ethyl-2-oxo-6-[2-(piperidin-1-yl)phenyl]-1,2-dihydropyridine-3-carboxylic acid]	12.5 to 150 µg/mL (≈ 38.3 to 460 µM)	12.5 to 150 µg/mL (≈ 38.3 to 460 µM)	12.5 to 150 µg/mL (≈ 38.3 to 460 µM)	–
CCc1cc(C(=O)O)c(=O)[nH]c1-c1cnc(N(C)C)nc1 [Cpd 19, 6-[2-(dimethylamino)pyrimidin-5-yl]-5-ethyl-2-oxo-1,2-dihydropyridine-3-carboxylic acid]	12.5 to 150 µg/mL (≈ 43.4 to 520 µM)	12.5 to 150 µg/mL (≈ 43.4 to 520 µM)	12.5 to 150 µg/mL (≈ 43.4 to 520 µM)	–
CCc1cc(C(=O)O)c(=O)[nH]c1-c1ccc(N2CC3(CCCCC3)CC2=O)cc1 [Cpd 118, 5-ethyl-2-oxo-6-[4-(3-oxo-2-azaspiro[4.5]dec-2-yl)phenyl]-1,2-dihydropyridine-3-carboxylic acid]	12.5 to 150 µg/mL (≈ 31.7 to 380 µM)	12.5 to 150 µg/mL (≈ 31.7 to 380 µM)	3.5 to 12.5 µg/mL (≈ 8.87 to 31.7 µM)	–
CCc1c(-c2ccc(N3CCCCC3)c(OC)c2)[nH]c(=O)c(C(=O)O)c1O [Cpd 69, 5-ethyl-4-hydroxy-6-[3-methoxy-4-(piperidin-1-yl)phenyl]-2-oxo-1,2-dihydropyridine-3-carboxylic acid]	3.5 to 12.5 µg/mL (≈ 9.4 to 33.6 µM)	12.5 to 150 µg/mL (≈ 33.6 to 403 µM)	3.5 to 12.5 µg/mL (≈ 9.4 to 33.6 µM)	–
CCc1cc(C(=O)O)c(=O)[nH]c1-c1ccc(N(C)C)cc1OC [Cpd 62, 6-[4-(dimethylamino)-2-methoxyphenyl]-5-ethyl-2-oxo-1,2-dihydropyridine-3-carboxylic acid]	12.5 to 150 µg/mL (≈ 39.5 to 474 µM)	12.5 to 150 µg/mL (≈ 39.5 to 474 µM)	12.5 to 150 µg/mL (≈ 39.5 to 474 µM)	–
CCc1c(-c2ccc(N3CCC[C@@H](O)C3)cc2)[nH]c(=O)c(C(=O)O)c1O [Cpd 125, 5-ethyl-4-hydroxy-6-{4-[(3R)-3-hydroxypiperidin-1-yl]phenyl}-2-oxo-1,2-dihydropyridine-3-carboxylic acid]	12.5 to 150 µg/mL (≈ 34.9 to 419 µM)	3.5 to 12.5 µg/mL (≈ 9.77 to 34.9 µM)	< 1 µg/mL	–
CCc1c(-c2ccc(I)cc2)[nH]c(=O)c(C(=O)O)c1O [Cpd 81, 5-ethyl-4-hydroxy-6-(4-iodophenyl)-2-oxo-1,2-dihydropyridine-3-carboxylic acid]	3.5 to 12.5 µg/mL (≈ 9.09 to 32.5 µM)	12.5 to 150 µg/mL (≈ 32.5 to 389 µM)	1 to 3.5 µg/mL (≈ 2.6 to 9.09 µM)	–
CCc1c(-c2ccccc2N(C)C)[nH]c(=O)c(C(=O)O)c1O [Cpd 58, 6-[2-(dimethylamino)phenyl]-5-ethyl-4-hydroxy-2-oxo-1,2-dihydropyridine-3-carboxylic acid]	3.5 to 12.5 µg/mL (≈ 11.6 to 41.3 µM)	12.5 to 150 µg/mL (≈ 41.3 to 496 µM)	3.5 to 12.5 µg/mL (≈ 11.6 to 41.3 µM)	–
CCc1cc(C(=O)O)c(=O)[nH]c1-c1ccc(N2CCCC2)c(C)c1 [Cpd 70, 5-ethyl-6-[3-methyl-4-(pyrrolidin-1-yl)phenyl]-2-oxo-1,2-dihydropyridine-3-carboxylic acid]	12.5 to 150 µg/mL (≈ 38.3 to 460 µM)	12.5 to 150 µg/mL (≈ 38.3 to 460 µM)	< 1 µg/mL	–

Compound	MIC [1]	MIC [2]	MIC [3, 4]	MIC [3]
CCc1cc(C(=O)O)c(=O)[nH]c1-c1ccc(N2CCO[C@H]3CNC[C@H]32)cc1.O=C(O)C(F)(F)F [Cpd 186, 5-ethyl-6-{4-[(4aR,7aS)-hexahydropyrrolo[3,4-b][1,4]oxazin-4(4aH)-yl]phenyl}-2-oxo-1,2-dihydropyridine-3-carboxylic acid trifluoroacetate]	12.5 to 150 µg/mL	12.5 to 150 µg/mL	–	12.5 to 150 µg/mL
CCc1c(-c2ccccc2N2CCCCC2)[nH]c(=O)c(C(=O)O)c1O [Cpd 29, 5-ethyl-4-hydroxy-2-oxo-6-[2-(piperidin-1-yl)phenyl]-1,2-dihydropyridine-3-carboxylic acid]	1 to 3.5 µg/mL (≈ 2.92 to 10.2 µM)	12.5 to 150 µg/mL (≈ 36.5 to 438 µM)	1 to 3.5 µg/mL (≈ 2.92 to 10.2 µM)	–
CCc1cc(C(=O)O)c(=O)[nH]c1-c1ccc(N2C[C@H]3CCN(Cc4ccccc4)[C@H]3C2)cc1.O=C(O)C(F)(F)F [Cpd 189, 6-{4-[(3aR,6aR)-1-benzylhexahydropyrrolo[3,4-b]pyrrol-5(1H)-yl]phenyl}-5-ethyl-2-oxo-1,2-dihydropyridine-3-carboxylic acid trifluoroacetate]	12.5 to 150 µg/mL	3.5 to 12.5 µg/mL	–	< 1 µg/mL
CCc1c(-c2ccc(OC)cc2OC)[nH]c(=O)c(C(=O)O)c1O [Cpd 36, 6-(2,4-dimethoxyphenyl)-5-ethyl-4-hydroxy-2-oxo-1,2-dihydropyridine-3-carboxylic acid]	12.5 to 150 µg/mL (≈ 39.1 to 470 µM)	12.5 to 150 µg/mL (≈ 39.1 to 470 µM)	3.5 to 12.5 µg/mL (≈ 11 to 39.1 µM)	–
CCc1cc(C(=O)O)c(=O)[nH]c1-c1ccc(N2CCC[C@@H](O)C2)cc1 [Cpd 122, 5-ethyl-6-{4-[(3R)-3-hydroxypiperidin-1-yl]phenyl}-2-oxo-1,2-dihydropyridine-3-carboxylic acid]	12.5 to 150 µg/mL (≈ 36.5 to 438 µM)	3.5 to 12.5 µg/mL (≈ 10.2 to 36.5 µM)	< 1 µg/mL	–
CCc1cc(C(=O)O)c(=O)[nH]c1-c1ccnn1C [Cpd 344, 5-ethyl-6-(1-methyl-1H-pyrazol-5-yl)-2-oxo-1,2-dihydropyridine-3-carboxylic acid]	12.5 to 150 µg/mL (≈ 50.6 to 607 µM)	12.5 to 150 µg/mL (≈ 50.6 to 607 µM)	12.5 to 150 µg/mL (≈ 50.6 to 607 µM)	–
CCc1cc(C(=O)O)c(=O)[nH]c1-c1ccc(N2CCC[C@H]2CN2CCCC2)cc1.O=C(O)C(F)(F)F [Cpd 143, 5-ethyl-2-oxo-6-{4-[(2S)-2-(pyrrolidin-1-ylmethyl)pyrrolidin-1-yl]phenyl}-1,2-dihydropyridine-3-carboxylic acid trifluoroacetate]	12.5 to 150 µg/mL	12.5 to 150 µg/mL	–	3.5 to 12.5 µg/mL
CCc1c(-c2ccc(N3CCCCC3)s2)[nH]c(=O)c(C(=O)O)c1O [Cpd 309, 5-ethyl-4-hydroxy-2-oxo-6-[5-(piperidin-1-yl)thiophen-2-yl]-1,2-dihydropyridine-3-carboxylic acid]	3.5 to 12.5 µg/mL (≈ 10 to 35.9 µM)	12.5 to 150 µg/mL (≈ 35.9 to 431 µM)	< 1 µg/mL	–
O=C(O)c1c(O)cc(-c2ccc(N3CCCC3)cc2)[nH]c1=O [Cpd 21, 4-hydroxy-2-oxo-6-[4-(pyrrolidin-1-yl)phenyl]-1,2-dihydropyridine-3-carboxylic acid]	3.5 to 12.5 µg/mL (≈ 11.7 to 41.6 µM)	12.5 to 150 µg/mL (≈ 41.6 to 499 µM)	3.5 to 12.5 µg/mL (≈ 11.7 to 41.6 µM)	–
CCc1cc(C(=O)O)c(=O)[nH]c1-c1ccc(OC)cc1N(C)C [Cpd 40, 6-[2-(dimethylamino)-4-methoxyphenyl]-5-ethyl-2-oxo-1,2-dihydropyridine-3-carboxylic acid]	12.5 to 150 µg/mL (≈ 39.5 to 474 µM)	12.5 to 150 µg/mL (≈ 39.5 to 474 µM)	12.5 to 150 µg/mL (≈ 39.5 to 474 µM)	–
CCc1c(-c2ccc(N(C)C)c(C)c2)[nH]c(=O)c(C(=O)O)c1O [Cpd 63, 6-[4-(dimethylamino)-3-methylphenyl]-5-ethyl-4-hydroxy-2-oxo-1,2-dihydropyridine-3-carboxylic acid]	3.5 to 12.5 µg/mL (≈ 11.1 to 39.5 µM)	12.5 to 150 µg/mL (≈ 39.5 to 474 µM)	1 to 3.5 µg/mL (≈ 3.16 to 11.1 µM)	–
O=C(O)c1cc(C(=O)O)c(=O)[nH]c1-c1ccc(F)cc1 [Cpd 10, 6-(4-fluorophenyl)-2-oxo-1,2-dihydropyridine-3,5-dicarboxylic acid]	12.5 to 150 µg/mL (≈ 45.1 to 541 µM)	12.5 to 150 µg/mL (≈ 45.1 to 541 µM)	12.5 to 150 µg/mL (≈ 45.1 to 541 µM)	–
CCc1cc(C(=O)O)c(=O)[nH]c1-c1ccc(N2C[C@@H]3[C@H](C2)[C@H]3N(Cc2ccccc2)Cc2ccccc2)cc1 [Cpd 176, 6-{4-[(1R,5S,6s)-6-(dibenzylamino)-3-azabicyclo[3.1.0]hex-3-yl]phenyl}-5-ethyl-2-oxo-1,2-dihydropyridine-3-carboxylic acid hydrochloride]	12.5 to 150 µg/mL	12.5 to 150 µg/mL	12.5 to 150 µg/mL	–
CCc1cc(C(=O)O)c(=O)[nH]c1-c1ccc(N(C)C)cc1C [Cpd 57, 6-[4-(dimethylamino)-2-methylphenyl]-5-ethyl-2-oxo-1,2-dihydropyridine-3-carboxylic acid]	12.5 to 150 µg/mL (≈ 41.6 to 499 µM)	12.5 to 150 µg/mL (≈ 41.6 to 499 µM)	12.5 to 150 µg/mL (≈ 41.6 to 499 µM)	–
C=CCN(CC=C)c1ccc(-c2[nH]c(=O)c(C(=O)O)cc2CC)cc1 [Cpd 299, 6-{4-[di(prop-2-en-1-yl)amino]phenyl}-5-ethyl-2-oxo-1,2-dihydropyridine-3-carboxylic acid]	12.5 to 150 µg/mL (≈ 36.9 to 443 µM)	12.5 to 150 µg/mL (≈ 36.9 to 443 µM)	1 to 3.5 µg/mL (≈ 2.96 to 10.3 µM)	–
CCc1cc(C(=O)O)c(=O)[nH]c1-c1ccc(N2CCCCC2)cc1F [Cpd 43, 5-ethyl-6-[2-fluoro-4-(piperidin-1-yl)phenyl]-2-oxo-1,2-dihydropyridine-3-carboxylic acid]	12.5 to 150 µg/mL (≈ 36.3 to 436 µM)	12.5 to 150 µg/mL (≈ 36.3 to 436 µM)	< 1 µg/mL	–
